Measurements: patent US20230365673A1, “MEANS FOR REDUCING RADIO- AND CHEMOTHERAPY RESISTANCE AND ADVERSE EFFECTS” (JOHANN WOLFGANG GOETHE-UNIVERSITÄT FRANKFURT AM MAIN, priority 2020, published 2023)

Assays:
[1] = system: primary mouse colon fibroblasts; experiment: Inflammatory gene expression (RT-qPCR/RNAseq) in fibroblasts treated with APTKA conditioned medium; format: cell-based
Experimental: (A) Schematic illustration of APTKA or APTK organoids supernatant collection and treatment of primary mouse colon fibroblasts of unchallenged wildtype C57BL/6 mice. […] (F) Relative expression analysis by RT-qPCR of inflammatory genes in untreated wildtype and APTKA conditioned medium treated fibroblasts in the presence of IKKß inhibitor ML120B (30 μM) and p38 MAPK inhibitor SB203580 (10 μM) for 24 h (n=4 independent wells per group). Data are mean±SD. p<0.05 by one-way ANOVA followed by Tukey's multiple comparisons test. Representative results from one experiment which has been independently repeated 3 times. (G and H) RNA sequencing analysis of APTKA (n=3) and APTK (n=3) organoids: (G) heat map analysis; (H) differentially expressed cytokines in APTKA (Log 2 fold change≤−1) compared to APTK organoids (log 2 fold Change≥1). p-value<0.05. (I) RT-qPCR analysis of inflammatory genes in APTKA conditioned fibroblasts treated with control IgG, α-IL-1α, α-IL-33, α-TNF-α, α-BAFF or α-CXCL16 neutralizing antibodies (2 μg/mL each) for 24 h (n=4 independent wells per group). Data are mean±SD. **** p<0.0001 by one-way ANOVA followed by Tukey's multiple comparisons test. Experiment performed twice. (J) RNA expression profiles of inflammatory genes in APTKA conditioned fibroblasts stimulated for 24 h then subjected to anakinra (10 μg/mL), APTKA fresh or regular medium treatments for another 24 h (n=4 independent wells per condition). Data are mean±SD; p<0.05 by one-way ANOVA followed by Tukey's multiple comparisons test. Representative results from one experiment which has been independently repeated 2 times.
To examine whether APTK and APTKA tumour organoids differentially affect surrounding fibroblasts in tumours directly in a paracrine manner, supernatants were collected from both tumour organoid lines and treated primary intestinal fibroblasts of unchallenged wildtype mice for 24 hours with the two different tumour-conditioned media ex vivo (FIG. 3A). RNAseq analysis confirmed distinct gene expression patterns in fibroblasts exposed to the two organoid supernatants (FIG. 3B).
The inventors then aimed to identify the upstream factors secreted by APTKA organoids that were responsible for activating NF-κB and p38 in fibroblasts. To this end RNAseq analysis of APTK and APTKA tumour organoids were performed and identified several differentially expressed genes encoding cytokines (FIG. 3G, H). Using neutralizing antibodies, NF-κB and p38 inducing cytokines TNFα, IL-1α, IL-33, BAFF or CXCL16 were blocked in APTKA supernatants and expression of Cxcl1, Cxcl2, Cxcl5 and Ilia as inflammatory marker genes in fibroblasts was examined.
To do so, fibroblasts were stimulated for 24 hours with APTKA conditioned medium before adding anakinra, adding fresh APTKA medium or changing medium to regular medium.

[2] = system: APTKA conditioned fibroblasts; experiment: Fibroblast morphology after fractionated irradiation (3×2 Gy); format: cell-based, mouse
Experimental: (A) Schematic illustration of APTKA organoids supernatant collection and treatment of colon fibroblasts from unchallenged wildtype C57BL/6 mice for 12 h followed by 3×2 Gy irradiation. Microscopic, proteomic & transcriptomic analysis were performed 72 h post first irradiation. (B) Microscopic captures of non-irradiated wildtype (WT) and APTKA conditioned fibroblasts. Remaining captures belong to irradiated fibroblasts: WT, IL-1α (1 μg/mL) stimulated WT, and APTKA conditioned media minus or plus anakinra (20 μg/mL) treated fibroblasts. Scale bars=200 μm. (C) Mass spectrometric analysis of matrisome profiles of 3×2 Gy irradiated (n=8) and non-irradiated (n=8) APTKA conditioned fibroblasts. […] (G) Immunoblot analysis of untreated and irradiated APTKA conditioned fibroblasts. Representative results from one experiment which has been independently repeated 2 times. (H) SA-ß gal staining of untreated and irradiated APTKA fibroblasts. Scale bars=100 μm. (I and J) p21 and pH2AX immunofluorescent staining of untreated and irradiated APTKA fibroblasts. Scale bars=[…]. Data are mean±SD. ** […] and *** p<0.001 by t-test. (K) Nitrite concentration determined by Griess assay in conditioned media from WT, APTK media, APTKA media, IL-1α (1 μg/mL) stimulated and APTKA plus anakinra (20 μg/mL) treated fibroblasts for 72 h (n=10 independent wells per group). […]

| Substance | expression of Cxcl1, Cxcl5 and Mmp13 in already polarized fibroblasts ([1]; 24 h APTKA conditioned medium, then anakinra 10 μg/mL for another 24 h) | upregulation of pro-inflammatory genes in fibroblasts ([1]; APTKA conditioned medium plus anakinra, data not shown) | APTKA-induced elongated, spindle like morphology after irradiation ([2]; wildtype fibroblasts, APTKA conditioned medium plus anakinra 20 μg/mL) | transcriptomic profile induced in fibroblasts ([1]; recombinant IL-1α alone, compared with APTKA supernatant, data not shown) | fibroblast morphology after irradiation ([2]; recombinant IL-1α 1 μg/mL alone) |
| --- | --- | --- | --- | --- | --- |
| anakinra: Kineret®, an interleukin-1 receptor antagonist | completely reverted expression of these genes | prevented upregulation of pro-inflammatory genes | prevented the APTKA-induced phenotype |  |  |
| recombinant IL-1α: recombinant cytokine used to stimulate fibroblasts |  |  |  | sufficed to induce a similar transcriptomic profile as APTKA supernatant | sufficient to cause a comparable morphology after irradiation |
